Positions of bridges follow the written chain, without caps; N, C: chain ends. Non-standard residues stand in square brackets, D forms with d. Residues, ends and D or L forms follow the SMILES beside them. Groups on a side chain read outwards from the residue. *: point of attachment. DOTA = O=C(O)CN1CCN(CC(=O)O)CCN(CC(=O)*)CCN(CC(=O)O)CC1; 2Nal = N[C@@H](Cc1ccc2ccccc2c1)C(=O)O; Lys(iPr) = CC(C)NCCCC[C@H](N)C(=O)O
Assays:
Type in all cases: in vivo
[1] = Biodistribution in GRANTA519 tumor-bearing mice; conditions: male, NOD.Cg-Rag1^tm1MomII2rg^tm1Wjl/SzJ (NRG), mouse, iv, total radioactivity, GRANTA519
Method: (§1) For Daudi, Z138, GRANTA519 and Jeko1 xenografts, male NOD.Cg-Rag1^tm1MomII2rg^tm1Wjl/SzJ (NRG) mice were subcutaneously inoculated on the left flank with 5×10^6 cells (100 μL; 1:1 ratio of PBS/Matrigel) and tumors were grown to a size of 200-500 mm^3. For PC-3 xenografts, male NOD.Cg-Rag1^tm1MomII2rg^tm1Wjl/SzJ (NRG) mice were subcutaneously inoculated on the left flank with 5×10^6 PC-3 cells (100 μL; 1:1 ratio of PBS/Matrigel) and tumors were grown to a size of 200-400 mm^3.
(§2) The mice were euthanized via CO2 inhalation while anesthetized with isoflurane. Tissues were harvested, washed in PBS, blotted dry, weighed, and measured on a Hidex AMG Automatic Gamma Counter.

[2] = test system: GRANTA519 mantle cell lymphoma xenografts; experiment: Biodistribution in GRANTA519 tumor-bearing mice; conditions: GRANTA519
Method: as §1, §2

[3] = Biodistribution in Jeko1 tumor-bearing mice; conditions: male, NOD.Cg-Rag1^tm1MomII2rg^tm1Wjl/SzJ (NRG), mouse, iv, total radioactivity
Method: as §1, §2

[4] = test system: Jeko1 mantle cell lymphoma xenografts; experiment: Biodistribution in Jeko1 tumor-bearing mice
Method: as §1, §2

[5] = adrenals, 1 h, read-out: Biodistribution Adrenals
[6] = adrenals, 1 h blocked (7.5 μg LY2510924 i.p.), read-out: Biodistribution Adrenals
[7] = bone, 1 h, read-out: Biodistribution Bone
[8] = bone, 1 h blocked (7.5 μg LY2510924 i.p.), read-out: Biodistribution Bone
[9] = brain, 1 h, read-out: Biodistribution Brain
[10] = brain, 1 h blocked (7.5 μg LY2510924 i.p.), read-out: Biodistribution Brain
[11] = fat, 1 h, read-out: Biodistribution Fat
[12] = fat, 1 h blocked (7.5 μg LY2510924 i.p.), read-out: Biodistribution Fat
[13] = heart, 1 h, read-out: Biodistribution Heart
[14] = heart, 1 h blocked (7.5 μg LY2510924 i.p.), read-out: Biodistribution Heart
[15] = intestine, 1 h, read-out: Biodistribution Intestine
[16] = intestine, 1 h blocked (7.5 μg LY2510924 i.p.), read-out: Biodistribution Intestine
[17] = kidney, 1 h, read-out: Biodistribution Kidney
[18] = kidney, 1 h blocked (7.5 μg LY2510924 i.p.), read-out: Biodistribution Kidney
[19] = liver, 1 h, read-out: Biodistribution Liver
[20] = liver, 1 h blocked (7.5 μg LY2510924 i.p.), read-out: Biodistribution Liver
[21] = lung, 1 h, read-out: Biodistribution Lung
[22] = lung, 1 h blocked (7.5 μg LY2510924 i.p.), read-out: Biodistribution Lung
[23] = muscle, 1 h, read-out: Biodistribution Muscle
[24] = muscle, 1 h blocked (7.5 μg LY2510924 i.p.), read-out: Biodistribution Muscle
[25] = pancreas, 1 h, read-out: Biodistribution Pancreas
[26] = pancreas, 1 h blocked (7.5 μg LY2510924 i.p.), read-out: Biodistribution Pancreas
[27] = spleen, 1 h, read-out: Biodistribution Spleen
[28] = spleen, 1 h blocked (7.5 μg LY2510924 i.p.), read-out: Biodistribution Spleen
[29] = stomach, 1 h, read-out: Biodistribution Stomach
[30] = stomach, 1 h blocked (7.5 μg LY2510924 i.p.), read-out: Biodistribution Stomach
[31] = testes, 1 h, read-out: Biodistribution Testes
[32] = testes, 1 h blocked (7.5 μg LY2510924 i.p.), read-out: Biodistribution Testes
[33] = whole blood, 1 h, read-out: Biodistribution Blood
[34] = whole blood, 1 h blocked (7.5 μg LY2510924 i.p.), read-out: Biodistribution Blood
[35] = 1 h blocked (7.5 μg LY2510924 i.p.)

`CC(C)NCCCC[C@@H]1NC(=O)[C@H](Cc2ccc(O)cc2)NC(=O)[C@H](Cc2ccccc2)NC(=O)CC[C@H](C(=O)N[C@@H](CCCCNC(C)C)C(=O)N[C@@H](CCCCNC(=O)[C@H](CCC(=O)O)NC(=O)[C@H](CCC(=O)O)NC(=O)[C@H](CCC(=O)O)NC(=O)CN2CCN(CC(=O)O)CCN(CC(=O)O)CCN(CC(=O)O)CC2)C(N)=O)NC(=O)CNC(=O)[C@H](Cc2ccc3ccccc3c2)NC(=O)[C@@H](CCCNC(=N)N)NC1=O` [[^68Ga]Ga-BL02, metal not drawn] (FY[Lys(iPr)][dR][2Nal]G[dE][Lys(iPr)]K([Glu-Glu-Glu-DOTA])-NH2; lactam N-7) showed a tissue uptake at 1 h [1, 5] of 3.48 %ID/g, a tissue uptake at 1 h [1, 6] of 7.4 %ID/g and a tissue uptake at 1 h [1, 7] of 0.16 %ID/g. For the same compound, the tissue uptake at 1 h [1, 8] was 0.25 %ID/g, the tissue uptake at 1 h [1, 9] was 0.01 %ID/g and the tissue uptake at 1 h [1, 10] was 0.02 %ID/g. It also gave a tissue uptake at 1 h [1, 11] of 0.05 %ID/g, a tissue uptake at 1 h [1, 12] of 0.1 %ID/g and a tissue uptake at 1 h [1, 13] of 0.49 %ID/g. The tissue uptake at 1 h [1, 14] was 0.53 %ID/g, the tissue uptake at 1 h [1, 15] was 0.22 %ID/g and the tissue uptake at 1 h [1, 16] was 0.46 %ID/g. For the same compound, the tissue uptake at 1 h [1, 17] was 0.62 %ID/g, the tissue uptake at 1 h [1, 18] was 0.81 %ID/g and the tissue uptake at 1 h [1, 19] was 0.09 %ID/g. It also gave a tissue uptake at 1 h [1, 20] of 0.19 %ID/g, a tissue uptake at 1 h [1, 21] of 0.12 %ID/g and a tissue uptake at 1 h [1, 22] of 0.25 %ID/g. For the same compound, the tissue uptake at 1 h [1, 23] was 0.07 %ID/g, the tissue uptake at 1 h [1, 24] was 0.14 %ID/g and the tissue uptake at 1 h [1, 25] was 0.2 %ID/g. It also gave a tissue uptake at 1 h [1, 26] of 0.34 %ID/g, a tissue uptake at 1 h [1, 27] of 0.49 %ID/g and a tissue uptake at 1 h [1, 28] of 0.53 %ID/g. For the same compound, the tissue uptake at 1 h [1, 29] was 0.05 %ID/g, the tissue uptake at 1 h [1, 30] was 0.12 %ID/g and the tissue uptake at 1 h [1, 31] was 0.16 %ID/g. It also gave a tissue uptake at 1 h [1, 32] of 0.2 %ID/g, a tissue uptake at 1 h ([1]; tumor (GRANTA519 xenograft), 1 h, read-out: Biodistribution GRANTA519 (tumor)) of 5.5 %ID/g and a tissue uptake at 1 h ([1]; tumor (GRANTA519 xenograft), 1 h blocked (7.5 μg LY2510924 i.p.), read-out: Biodistribution GRANTA519 (tumor)) of 0.72 %ID/g. The tissue uptake at 1 h [1, 33] was 0.41 %ID/g, the tissue uptake at 1 h [1, 34] was 0.83 %ID/g and the “Ratio Tumor: Blood” value ([2]; 1 h) was 13.83. For the same compound, the “Ratio Tumor: Bone” value ([2]; 1 h) was 45.39, the “Ratio Tumor: Liver” value ([2]; 1 h) was 11.28 and the “Ratio Tumor: Lung” value ([2]; 1 h) was 9.12. The “Ratio Tumor: Muscle” value ([2]; 1 h) was 83.17, the “Ratio Tumor: Spleen” value ([2]; 1 h) was 15.86 and the “Ratio Tumor: Blood” value [2, 35] was 0.94. The “Ratio Tumor: Bone” value [2, 35] was 4.27, the “Ratio Tumor: Liver” value [2, 35] was 1.37 and the “Ratio Tumor: Lung” value [2, 35] was 0.96. The “Ratio Tumor: Muscle” value [2, 35] was 5.36, the “Ratio Tumor: Spleen” value [2, 35] was 1.78 and the tissue uptake at 1 h ([3]; Jeko1 tumor, 1 h, read-out: Biodistribution Jeko1 (tumor)) was 11.4 %ID/g. For the same compound, the tissue uptake at 1 h ([3]; Jeko1 tumor, 1 h blocked (7.5 μg LY2510924 i.p.), read-out: Biodistribution Jeko1 (tumor)) was 1.32 %ID/g, the tissue uptake at 1 h [3, 5] was 0.23 %ID/g and the tissue uptake at 1 h [3, 6] was 0.47 %ID/g. The tissue uptake at 1 h [3, 7] was 0.47 %ID/g, the tissue uptake at 1 h [3, 8] was 0.18 %ID/g and the tissue uptake at 1 h [3, 9] was 0.02 %ID/g. For the same compound, the tissue uptake at 1 h [3, 10] was 0.03 %ID/g, the tissue uptake at 1 h [3, 11] was 0.05 %ID/g and the tissue uptake at 1 h [3, 12] was 0.14 %ID/g. It also gave a tissue uptake at 1 h [3, 13] of 0.13 %ID/g, a tissue uptake at 1 h [3, 14] of 0.35 %ID/g and a tissue uptake at 1 h [3, 15] of 0.19 %ID/g. It also gave a tissue uptake at 1 h [3, 16] of 0.44 %ID/g, a tissue uptake at 1 h [3, 17] of 3.32 %ID/g and a tissue uptake at 1 h [3, 18] of 8.91 %ID/g. It also gave a tissue uptake at 1 h [3, 19] of 0.77 %ID/g, a tissue uptake at 1 h [3, 20] of 0.55 %ID/g and a tissue uptake at 1 h [3, 21] of 0.74 %ID/g. For the same compound, the tissue uptake at 1 h [3, 22] was 1.05 %ID/g, the tissue uptake at 1 h [3, 23] was 0.06 %ID/g and the tissue uptake at 1 h [3, 24] was 0.2 %ID/g. For the same compound, the tissue uptake at 1 h [3, 25] was 0.09 %ID/g, the tissue uptake at 1 h [3, 26] was 0.26 %ID/g and the tissue uptake at 1 h [3, 27] was 0.7 %ID/g. It also gave a tissue uptake at 1 h [3, 28] of 0.57 %ID/g, a tissue uptake at 1 h [3, 29] of 0.06 %ID/g and a tissue uptake at 1 h [3, 30] of 0.13 %ID/g. It also gave a tissue uptake at 1 h [3, 31] of 0.14 %ID/g, a tissue uptake at 1 h [3, 32] of 0.29 %ID/g and a tissue uptake at 1 h [3, 33] of 0.38 %ID/g. The tissue uptake at 1 h [3, 34] was 1.08 %ID/g, the “Ratio Tumor: Blood” value ([4]; 1 h) was 31.30 and the “Ratio Tumor: Bone” value ([4]; 1 h) was 37.23. For the same compound, the “Ratio Tumor: Liver” value ([4]; 1 h) was 15.41, the “Ratio Tumor: Lung” value ([4]; 1 h) was 15.76 and the “Ratio Tumor: Muscle” value ([4]; 1 h) was 180.39. For the same compound, the “Ratio Tumor: Spleen” value ([4]; 1 h) was 19.78, the “Ratio Tumor: Blood” value [4, 35] was 1.74 and the “Ratio Tumor: Bone” value [4, 35] was 8.83. The “Ratio Tumor: Liver” value [4, 35] was 2.59, the “Ratio Tumor: Lung” value [4, 35] was 1.48 and the “Ratio Tumor: Muscle” value [4, 35] was 8.71. For the same compound, the “Ratio Tumor: Spleen” value [4, 35] was 3.10.

Reference: patent publication US20220218852A1, “NOVEL RADIOLABELLED CXCR4-TARGETING COMPOUNDS FOR DIAGNOSIS AND THERAPY” (PROVINCIAL HEALTH SERVICES AUTHORITY, priority 2019, published 2022)
